This note sets out measurements from PubChem BioAssay (NCI).

Test systems include CCRF-CEM leukemia; CAKI-1 renal; NCI-H23 lung; OVCAR-5 ovarian; SNB-75 CNS; HCT-15 colon; SF-539 CNS; U251 CNS; SK-MEL-5 melanoma; NCI-H522 lung.
Common to all, as to assay: NCI anticancer screen, dose series, 48 h

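The compound was tested at five concentrations on cells cultured in 96-well plates, with a 48-hour exposure period. GI50 = concentration required for 50% inhibition of growth. Definition used: TGI = concentration required for complete inhibition of growth.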

Regarding `Cc1ccc(NC(=O)CC(=O)n2nc(C)c(N=Nc3ccccc3C(=O)O)c2C)cc1`, the TGI in the experiment on CCRF-CEM leukemia, in the experiment on CAKI-1 renal, in the experiment on NCI-H23 lung, in the experiment on OVCAR-5 ovarian, in the experiment on SNB-75 CNS and with HCT-15 colon was above 100 µM throughout. For the same compound, the TGI with SF-539 CNS, with U251 CNS, in the experiment on SK-MEL-5 melanoma and in the experiment on NCI-H522 lung was above 100 µM each time.
`CCCC(=O)OCC1OC(n2cnc3c(=S)nc[nH]c32)C(OC(=O)CCC)C1OC(=O)CCC` (stereo not given): the GI50 was 1.79 µM in the experiment with CCRF-CEM leukemia; 2.51 µM in the experiment on CAKI-1 renal; 5.09 µM in the experiment on NCI-H23 lung; 4.76 µM with OVCAR-5 ovarian; 4.04 µM with SNB-75 CNS; 7.22 µM in the experiment on HCT-15 colon. The GI50 in the experiment on SF-539 CNS is 3.53 µM; in the experiment with U251 CNS it was 62 µM; with SK-MEL-5 melanoma, 5.24 µM; in the experiment with NCI-H522 lung it was 4.62 µM. The TGI in the experiment on CCRF-CEM leukemia was 17.4 µM; in the experiment on CAKI-1 renal it was 23.5 µM; in the experiment with NCI-H23 lung, above 100 µM; in the experiment on OVCAR-5 ovarian, above 100 µM; in the experiment with SNB-75 CNS it was above 100 µM; in the experiment on HCT-15 colon, above 100 µM. Moreover, the TGI was above 100 µM in the experiment on SF-539 CNS, above 100 µM with U251 CNS, 62.9 µM with SK-MEL-5 melanoma and above 100 µM in the experiment on NCI-H522 lung.
Consider `O=C(Nc1ccncc1)C(=O)c1cn(S(=O)(=O)c2cccc(F)c2)c2ccccc12`, for which the GI50 was 2.58 µM with CCRF-CEM leukemia; 3.16 µM in the experiment on CAKI-1 renal; 2.43 µM in the experiment with NCI-H23 lung; above 100 µM in the experiment on OVCAR-5 ovarian; 2.62 µM in the experiment on SNB-75 CNS; 2.74 µM with HCT-15 colon. Moreover, the GI50 in the experiment with SF-539 CNS was 4.41 µM; with U251 CNS it was 4.38 µM; in the experiment on SK-MEL-5 melanoma, 2.83 µM; in the experiment on NCI-H522 lung, 1.3 µM. The TGI was above 100 µM in the experiment on CCRF-CEM leukemia; above 100 µM in the experiment on CAKI-1 renal; above 100 µM in the experiment on NCI-H23 lung; above 100 µM with OVCAR-5 ovarian; 17.8 µM in the experiment on SNB-75 CNS; above 100 µM in the experiment with HCT-15 colon. Also, the TGI in the experiment with SF-539 CNS was above 100 µM; in the experiment on U251 CNS, above 100 µM; with SK-MEL-5 melanoma, 37.7 µM; in the experiment on NCI-H522 lung, 15.7 µM.
Take `CCCCCCCCn1ccc2cc(NC(=O)Cn3cc(CN4CCCC4)nn3)ccc21`: the GI50 with CCRF-CEM leukemia is 2.9 µM; with CAKI-1 renal, 1.76 µM; in the experiment with NCI-H23 lung, 1.92 µM; in the experiment on OVCAR-5 ovarian it was 1.78 µM; with SNB-75 CNS it was 1.52 µM; in the experiment on HCT-15 colon, 1.84 µM. Also, the GI50 with SF-539 CNS is 1.73 µM; with U251 CNS, 1.7 µM; in the experiment on SK-MEL-5 melanoma, 1.79 µM; with NCI-H522 lung it was 1.75 µM. Besides, the TGI with CCRF-CEM leukemia was above 100 µM; with CAKI-1 renal it was 3.28 µM; in the experiment with NCI-H23 lung, 3.8 µM; in the experiment with OVCAR-5 ovarian it was 4 µM; in the experiment on SNB-75 CNS, 2.93 µM; in the experiment with HCT-15 colon it was 3.79 µM. The TGI in the experiment on SF-539 CNS is 3.19 µM; with U251 CNS, 3.16 µM; with SK-MEL-5 melanoma, 3.18 µM; in the experiment with NCI-H522 lung it was 3.6 µM.
Regarding `C[N+]1=C(/C=C/c2ccc(O)c3ncccc23)C(C)(C)c2ccccc21`, the GI50 was 3.1 µM in the experiment on CCRF-CEM leukemia; 1.11 µM in the experiment with CAKI-1 renal; 2.62 µM with NCI-H23 lung; 2.42 µM in the experiment with OVCAR-5 ovarian; 2.26 µM in the experiment with SNB-75 CNS; 0.893 µM in the experiment on HCT-15 colon. Further, the GI50 in the experiment on SF-539 CNS is 2.55 µM; in the experiment on U251 CNS, 2.4 µM; with SK-MEL-5 melanoma it was 2.26 µM; in the experiment on NCI-H522 lung, 2.83 µM. Moreover, the TGI in the experiment with CCRF-CEM leukemia worked out at 26 µM; in the experiment with CAKI-1 renal it was 3.83 µM; with NCI-H23 lung, 8.54 µM; in the experiment on OVCAR-5 ovarian it was 12.6 µM; with SNB-75 CNS it was 7.78 µM; in the experiment with HCT-15 colon it was 15.1 µM. Also, the TGI in the experiment on SF-539 CNS is 10.3 µM; in the experiment with U251 CNS it was 17.1 µM; with SK-MEL-5 melanoma it was 5.71 µM; in the experiment with NCI-H522 lung it was 11.6 µM.
On to `O=C1c2cccc([N+](=O)[O-])c2C(=O)N1c1ncn[nH]1`, for which the TGI in the experiment with CCRF-CEM leukemia was above 100 µM; in the experiment with CAKI-1 renal, above 100 µM; in the experiment on NCI-H23 lung it was above 100 µM; in the experiment on OVCAR-5 ovarian, above 100 µM; in the experiment with SNB-75 CNS, 64.6 µM; in the experiment with HCT-15 colon, above 100 µM. The TGI was 36.8 µM with SF-539 CNS, above 100 µM in the experiment with U251 CNS, above 100 µM in the experiment with SK-MEL-5 melanoma and above 100 µM with NCI-H522 lung.
Consider `CS(=O)(=O)CCNCc1ccc(-c2ccc3ncnc(Nc4ccc(OCc5ccccc5)cc4)c3c2)o1`, for which the GI50 is 0.631 µM with CCRF-CEM leukemia; 2.04 µM in the experiment with CAKI-1 renal; 8.57 µM in the experiment with NCI-H23 lung; 6.51 µM in the experiment on OVCAR-5 ovarian; 5.71 µM in the experiment with SNB-75 CNS; 4.13 µM with HCT-15 colon. The GI50 was 4.91 µM in the experiment on SF-539 CNS, 6.2 µM with U251 CNS, 3.72 µM with SK-MEL-5 melanoma and 3.32 µM in the experiment on NCI-H522 lung. Also, the TGI is above 15.6 µM in the experiment with CCRF-CEM leukemia; above 25 µM with CAKI-1 renal; above 25 µM with NCI-H23 lung; above 25 µM in the experiment on OVCAR-5 ovarian; above 25 µM in the experiment with SNB-75 CNS; 13.4 µM with HCT-15 colon. The TGI in the experiment with SF-539 CNS is 11 µM; with U251 CNS it was above 25 µM; in the experiment on SK-MEL-5 melanoma it was 7.11 µM; with NCI-H522 lung it was 10.4 µM.
In the case of `CCOC(=O)/C(C#N)=C/c1[nH]c(C(=O)OCc2ccccc2)c(C)c1C`, the TGI with CCRF-CEM leukemia, with CAKI-1 renal, with NCI-H23 lung, with OVCAR-5 ovarian, in the experiment with SNB-75 CNS and in the experiment with HCT-15 colon was above 100 µM throughout. Besides, the TGI with SF-539 CNS, in the experiment on U251 CNS, in the experiment with SK-MEL-5 melanoma and in the experiment with NCI-H522 lung was above 100 µM throughout.
As for `O=C(O)C(=Cc1ccc(-c2ccccc2)cc1)C(=O)O`, the TGI in the experiment with CCRF-CEM leukemia is above 100 µM; in the experiment on CAKI-1 renal, 30 µM; in the experiment with NCI-H23 lung, 32.2 µM; in the experiment with OVCAR-5 ovarian it was above 55.6 µM; in the experiment on SNB-75 CNS it was 28 µM; in the experiment on HCT-15 colon, above 61 µM. For the same compound, the TGI in the experiment on SF-539 CNS came to 19.3 µM; in the experiment on U251 CNS, 25.9 µM; in the experiment with SK-MEL-5 melanoma it was 23.9 µM; with NCI-H522 lung, 22.8 µM.
With `Nc1cccc(S(=O)(=O)NCC(=O)O)c1`, the TGI in the experiment on CCRF-CEM leukemia, in the experiment on CAKI-1 renal, in the experiment on NCI-H23 lung, in the experiment with OVCAR-5 ovarian, in the experiment with SNB-75 CNS and with HCT-15 colon was above 100 µM each time. Besides, the TGI in the experiment on SF-539 CNS, in the experiment on U251 CNS, in the experiment with SK-MEL-5 melanoma and with NCI-H522 lung was above 100 µM in each case.
As to `O=C(CC1(O)C(=O)Nc2ccccc21)c1ccncc1` (stereo not given), the TGI with CCRF-CEM leukemia, with CAKI-1 renal, in the experiment with NCI-H23 lung, with OVCAR-5 ovarian, with SNB-75 CNS and in the experiment with HCT-15 colon was above 100 µM in each case. For the same compound, the TGI with SF-539 CNS, in the experiment on U251 CNS, in the experiment with SK-MEL-5 melanoma and in the experiment on NCI-H522 lung was above 100 µM in each case.
Regarding `Cc1cc(-c2cnn3c(NCC4CC(C)(O)C4)cc(Oc4cccnc4)nc23)ccc1C(=O)NC1CC1` (stereo not given), the GI50 in the experiment on CCRF-CEM leukemia is 0.259 µM; in the experiment with CAKI-1 renal, 1.38 µM; in the experiment on NCI-H23 lung, above 100 µM; in the experiment with OVCAR-5 ovarian, above 100 µM; in the experiment on SNB-75 CNS, 2.11 µM; in the experiment with HCT-15 colon, 0.706 µM. The GI50 in the experiment with SF-539 CNS is 2.01 µM; in the experiment on U251 CNS, 4.18 µM; with SK-MEL-5 melanoma, 2.22 µM; in the experiment with NCI-H522 lung, 5.08 µM. The TGI in the experiment on CCRF-CEM leukemia, in the experiment with CAKI-1 renal, in the experiment on NCI-H23 lung, with OVCAR-5 ovarian, in the experiment with SNB-75 CNS and in the experiment on HCT-15 colon was above 100 µM in each case. Besides, the TGI with SF-539 CNS, in the experiment on U251 CNS, in the experiment on SK-MEL-5 melanoma and with NCI-H522 lung was above 100 µM each time.
Turning to `CC/C=C\C[C@H](F)C/C=C1/C(=O)C=C[C@@H]1C/C=C\CCCC(=O)O`, the GI50 was 1.05 µM with CCRF-CEM leukemia; 6.52 µM in the experiment with CAKI-1 renal; 7.36 µM in the experiment with NCI-H23 lung; 8.18 µM in the experiment with OVCAR-5 ovarian; 12.5 µM in the experiment on SNB-75 CNS; 4.45 µM with HCT-15 colon. For the same compound, the GI50 in the experiment on SF-539 CNS is 7.21 µM; in the experiment with U251 CNS it was 4.01 µM; with SK-MEL-5 melanoma, 4.86 µM; in the experiment on NCI-H522 lung, 4.58 µM. Also, the TGI in the experiment on CCRF-CEM leukemia is 11.1 µM; in the experiment with CAKI-1 renal it was 22.5 µM; in the experiment on NCI-H23 lung, 20.4 µM; in the experiment on OVCAR-5 ovarian, 21 µM; in the experiment on SNB-75 CNS it was above 32.5 µM; in the experiment on HCT-15 colon, 13.8 µM. The TGI in the experiment on SF-539 CNS turned out to be 17 µM; in the experiment with U251 CNS, 8.94 µM; in the experiment on SK-MEL-5 melanoma it was 9.18 µM; in the experiment on NCI-H522 lung it was 10.9 µM.
Take `O=C(O)c1nn(-c2ccccc2-c2n[nH]c(=O)[nH]c2=O)c(=O)[nH]c1=O`: the TGI in the experiment on CCRF-CEM leukemia, in the experiment on CAKI-1 renal, in the experiment on NCI-H23 lung, with OVCAR-5 ovarian, with SNB-75 CNS and in the experiment with HCT-15 colon was above 100 µM in each case. The TGI in the experiment with SF-539 CNS, in the experiment on U251 CNS, with SK-MEL-5 melanoma and in the experiment on NCI-H522 lung was above 100 µM each time.
